# Source: ChEMBL document CHEMBL1142873, “Synthesis, structural activity relationship and anti-tubercular activity of novel pyrazoline derivatives” (2007)
# Key:
# Assay type in all cases: functional
# [1] = test system: Mycobacterium tuberculosis; experiment: Antimycobacterial activity against Mycobacterium tuberculosis H37Rv at 0.0164 uM
# [2] = test system: Mycobacterium tuberculosis; experiment: Antimycobacterial activity against Mycobacterium tuberculosis H37Rv at 0.0150 uM
# [3] = test system: Mycobacterium tuberculosis; experiment: Antimycobacterial activity against Mycobacterium tuberculosis H37Rv
# [4] = test system: Mycobacterium tuberculosis; experiment: Antimycobacterial activity against Mycobacterium tuberculosis H37Rv at 0.0143 uM
# [5] = test system: Mycobacterium tuberculosis; experiment: Antimycobacterial activity against Mycobacterium tuberculosis H37Rv at 0.0084 uM
# [6] = test system: Mycobacterium tuberculosis; experiment: Antimycobacterial activity against Mycobacterium tuberculosis H37Rv at 0.0132 uM
# [7] = test system: Mycobacterium tuberculosis; experiment: Antimycobacterial activity against Mycobacterium tuberculosis H37Rv at 0.1706 uM
# [8] = test system: Mycobacterium tuberculosis; experiment: Antimycobacterial activity against Mycobacterium tuberculosis H37Rv at 0.0202 uM
# [9] = test system: Mycobacterium tuberculosis; experiment: Antimycobacterial activity against Mycobacterium tuberculosis H37Rv at 0.0354 uM
# [10] = test system: Mycobacterium tuberculosis; experiment: Antimycobacterial activity against Mycobacterium tuberculosis H37Rv at 0.0118 uM
# [11] = test system: Mycobacterium tuberculosis; experiment: Antimycobacterial activity against Mycobacterium tuberculosis H37Rv at 0.0092 uM
# [12] = test system: Mycobacterium tuberculosis; experiment: Antimycobacterial activity against Mycobacterium tuberculosis H37Rv at 0.0034 uM
# [13] = test system: Mycobacterium tuberculosis; experiment: Antimycobacterial activity against Mycobacterium tuberculosis H37Rv at 0.0977 uM
# [14] = test system: Mycobacterium tuberculosis; experiment: Antimycobacterial activity against Mycobacterium tuberculosis H37Rv at 0.0148 uM
# [15] = test system: Mycobacterium tuberculosis; experiment: Antimycobacterial activity against Mycobacterium tuberculosis H37Rv at 0.0403 uM
# [16] = test system: Mycobacterium tuberculosis; experiment: Antimycobacterial activity against Mycobacterium tuberculosis H37Rv at 0.0135 uM
# [17] = test system: Mycobacterium tuberculosis; experiment: Antimycobacterial activity against Mycobacterium tuberculosis H37Rv at 0.1467 uM
# [18] = test system: Mycobacterium tuberculosis; experiment: Antimycobacterial activity against Mycobacterium tuberculosis H37Rv at 0.0201 uM
# [19] = test system: Mycobacterium tuberculosis; experiment: Antimycobacterial activity against Mycobacterium tuberculosis H37Rv at 0.0149 uM
# [20] = test system: Mycobacterium tuberculosis; experiment: Antimycobacterial activity against Mycobacterium tuberculosis H37Rv at 0.2080 uM
# [21] = test system: Mycobacterium tuberculosis; experiment: Antimycobacterial activity against Mycobacterium tuberculosis H37Rv at 0.0140 uM
# [22] = test system: Mycobacterium tuberculosis; experiment: Antimycobacterial activity against Mycobacterium tuberculosis H37Rv at 0.0138 uM
structure (smiles),measurement,setting,value
COc1ccccc1NC(=S)N1N=C(c2ccc(O)c(C)c2)CC1c1ccc(F)cc1 (stereo not given),inhibition at 0.0164 µM,[1],16%
Cc1cc(C2=NN(C(=S)Nc3ccccc3C)C(c3ccccc3Cl)C2)ccc1O (stereo not given),inhibition at 0.015 µM,[2],33%
same,MIC,[3],6.25 µg/mL
Cc1cc(C2=NN(C(=S)Nc3ccccc3C)C(c3ccc(Cl)cc3)C2)ccc1O (stereo not given),inhibition at 0.0143 µM,[4],44%
same,MIC,[3],6.25 µg/mL
NNC(=O)c1ccncc1 [ISONIAZID],MIC,[3],0.025 µg/mL
COc1ccccc1NC(=S)N1N=C(c2ccc(O)c(C)c2)CC1c1cc(OC)c(OC)c(OC)c1 (stereo not given),inhibition at 0.0084 µM,[5],92%
Cc1cc(C2=NN(C(=S)Nc3ccccc3C)C(c3cccc([N+](=O)[O-])c3)C2)ccc1O (stereo not given),inhibition at 0.0132 µM,[6],14%
same,MIC,[3],6.25 µg/mL
Cc1cc(C2=NN(C(=S)Nc3ccccc3C)C(Cc3ccco3)C2)ccc1O (stereo not given),inhibition at 0.1706 µM,[7],26%
COc1ccccc1NC(=S)N1N=C(c2ccc(O)c(C)c2)CC1c1ccccc1Cl (stereo not given),inhibition at 0.0202 µM,[8],44%
Cc1cc(C2=NN(C(=S)Nc3ccccc3C)C(c3ccccc3)C2)ccc1O (stereo not given),inhibition at 0.0354 µM,[9],29%
COc1ccccc1NC(=S)N1N=C(c2ccc(O)c(C)c2)CC1c1ccc(OC)c(OC)c1 (stereo not given),inhibition at 0.0118 µM,[10],88%
same,MIC,[3],5.67 µg/mL
COc1ccc(C2CC(c3ccc(O)c(C)c3)=NN2C(=S)Nc2ccccc2OC)cc1 (stereo not given),inhibition at 0.0092 µM,[11],94%
same,MIC,[3],4.12 µg/mL
COc1ccccc1NC(=S)N1N=C(c2ccc(O)c(C)c2)CC1c1c(Cl)cccc1Cl (stereo not given),inhibition at 0.0034 µM,[12],98%
same,MIC,[3],1.66 µg/mL
COc1ccc(C2CC(c3ccc(O)c(C)c3)=NN2C(=S)Nc2ccccc2C)cc1OC (stereo not given),inhibition at 0.0977 µM,[13],72%
Cc1cc(C2=NN(C(=S)Nc3ccccc3C)C(c3ccc(F)cc3)C2)ccc1O (stereo not given),inhibition at 0.0148 µM,[14],32%
same,MIC,[3],6.25 µg/mL
COc1ccc(C2CC(c3ccc(O)c(C)c3)=NN2C(=S)Nc2ccccc2C)cc1 (stereo not given),inhibition at 0.0403 µM,[15],6%
COc1ccccc1NC(=S)N1N=C(c2ccc(O)c(C)c2)CC1c1ccc(N(C)C)cc1 (stereo not given),inhibition at 0.0135 µM,[16],28%
same,MIC,[3],6.25 µg/mL
COc1cc(C2CC(c3ccc(O)c(C)c3)=NN2C(=S)Nc2ccccc2C)cc(OC)c1OC (stereo not given),inhibition at 0.1467 µM,[17],44%
COc1ccccc1NC(=S)N1N=C(c2ccc(O)c(C)c2)CC1Cc1ccco1 (stereo not given),inhibition at 0.0201 µM,[18],18%
COc1ccccc1NC(=S)N1N=C(c2ccc(O)c(C)c2)CC1c1ccccc1 (stereo not given),inhibition at 0.0149 µM,[19],6%
same,MIC,[3],6.25 µg/mL
COc1ccccc1NC(=S)N1N=C(c2ccc(O)c(C)c2)CC1c1cccc([N+](=O)[O-])c1 (stereo not given),inhibition at 0.208 µM,[20],8%
Cc1cc(C2=NN(C(=S)Nc3ccccc3C)C(c3ccc(N(C)C)cc3)C2)ccc1O (stereo not given),inhibition at 0.014 µM,[21],12%
same,MIC,[3],6.25 µg/mL
Cc1cc(C2=NN(C(=S)Nc3ccccc3C)C(c3c(Cl)cccc3Cl)C2)ccc1O (stereo not given),inhibition at 0.0143 µM,[4],21%
same,MIC,[3],6.25 µg/mL
COc1ccccc1NC(=S)N1N=C(c2ccc(O)c(C)c2)CC1c1ccc(Cl)cc1 (stereo not given),inhibition at 0.0138 µM,[22],4%
same,MIC,[3],6.25 µg/mL
